According to ChEMBL document CHEMBL1201862, “PubChem BioAssay data set” (2004):
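Five compound concentrations were applied to cells in 96-well plates for 48 hours; endpoints were derived by simple linear interpolation of the resulting dose-response curve. GI50: concentration for 50% inhibition of growth.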 Activity calls are given as the source filed them. Rule as the data show it: active = GI50 up to about 1.1 µM and inactive = higher. Non-standard residues stand in square brackets, D forms with d. Residues, ends and D or L forms follow the SMILES beside them. ΔPro = O=C(O)[CH]1C=CCN1

What was measured:
Assay in all cases: inhibition of tumour cell growth, NCI panel, 48 h
ACHN = tested on: ACHN
BT-549 = tested on: BT-549
COLO 205 = tested on: COLO 205
HL-60 = tested on: HL-60
HOP-92 = tested on: HOP-92
LOX IMVI = tested on: LOX IMVI
M14 = tested on: M14
MOLT-4 = tested on: MOLT-4
NCI-H23 = tested on: NCI-H23
NCI-H522 = tested on: NCI-H522
NCI/ADR-RES = tested on: NCI/ADR-RES
OVCAR-4 = tested on: OVCAR-4
OVCAR-8 = tested on: OVCAR-8
RPMI-8226 = tested on: RPMI-8226
RXF 393 = tested on: RXF 393
SK-MEL-2 = tested on: SK-MEL-2
SR = tested on: SR
SW-620 = tested on: SW-620
U-251 = tested on: U-251
UACC-257 = tested on: UACC-257

Measured: GI50

Cc1ccc([N+](=O)[O-])cc1S(=O)(=O)Nc1ccc(C2=NN(S(=O)(=O)c3cc([N+](=O)[O-])ccc3C)C(c3ccccc3O)C2)cc1 (stereo not given)
inactive: ACHN 80.4 µM | BT-549 > 100 µM | COLO 205 > 100 µM | HL-60 > 100 µM | HOP-92 49.9 µM | LOX IMVI > 100 µM | M14 > 100 µM | MOLT-4 26.7 µM | NCI-H23 53.5 µM | NCI-H522 44 µM | NCI/ADR-RES 99.8 µM | OVCAR-4 > 100 µM | OVCAR-8 > 100 µM | RPMI-8226 51.1 µM | RXF 393 36.8 µM | SK-MEL-2 31.5 µM | SR > 100 µM | SW-620 > 100 µM | U-251 30.6 µM | UACC-257 > 100 µM

O=C(O)[C@@H]1C[C@@H](O)CN1C(=O)OCc1ccccc1
inactive: ACHN > 100 µM | BT-549 > 100 µM | COLO 205 > 100 µM | HL-60 > 100 µM | HOP-92 > 100 µM | LOX IMVI > 100 µM | M14 > 100 µM | MOLT-4 > 100 µM | NCI-H23 > 100 µM | NCI-H522 > 100 µM | NCI/ADR-RES > 100 µM | OVCAR-4 > 100 µM | OVCAR-8 > 100 µM | RPMI-8226 > 100 µM | RXF 393 > 100 µM | SK-MEL-2 > 100 µM | SR > 100 µM | SW-620 > 100 µM | U-251 > 100 µM | UACC-257 > 100 µM

C[N+](C)(N)Cc1nc(-c2ccc(Cl)cc2)no1
inactive: ACHN > 100 µM | BT-549 > 100 µM | COLO 205 > 100 µM | HL-60 > 100 µM | HOP-92 > 100 µM | LOX IMVI > 100 µM | M14 > 100 µM | MOLT-4 20.8 µM | NCI-H23 > 100 µM | NCI-H522 > 100 µM | NCI/ADR-RES > 100 µM | OVCAR-4 > 100 µM | OVCAR-8 > 100 µM | RPMI-8226 52.8 µM | RXF 393 > 100 µM | SK-MEL-2 > 100 µM | SR 26.8 µM | SW-620 > 100 µM | U-251 > 100 µM | UACC-257 > 100 µM

O=C(O)C1C=CCN1C(=O)C1C=CCN1C(=O)C1C=CCN1 (stereo not given) (H-[ΔPro]-[ΔPro]-[ΔPro]-OH; configuration not given here)
inactive: ACHN > 100 µM | BT-549 > 100 µM | COLO 205 > 100 µM | HL-60 > 100 µM | HOP-92 > 100 µM | LOX IMVI > 100 µM | M14 > 100 µM | MOLT-4 > 100 µM | NCI-H23 > 100 µM | NCI-H522 > 100 µM | NCI/ADR-RES > 100 µM | OVCAR-4 > 100 µM | OVCAR-8 > 100 µM | RPMI-8226 > 100 µM | RXF 393 4.21 µM | SK-MEL-2 > 100 µM | SR > 100 µM | SW-620 > 100 µM | U-251 > 100 µM | UACC-257 > 100 µM
